Assays:
[1] = Caco 2 monolayer permeability of 5-azacytidine with and without excipients; format: in vitro ADME; conditions: human
Experimental: The Caco-2 cells are an intestinal epithelial cell line (human colon adenocarcinoma established from the primary colon tumor (adenocarcinoma)) Monolayers of Caco-2 cells are used to classify the intestinal absorption potential of a drug candidate molecule. The assay was carried out in accordance with P. Artursson and J. Karlsson, “Correlation between Oral Drug Absorption in Humans and Apparent Drug Permeability Coefficients in Human Intestinal Epithelial (Caco-2) Cells”, Biochem. Biophys. Res. Commun. 175, 880 (1991).
Briefly, Caco-2 cells were grown to confluence on collagen-coated, microporous polycarbonate in 12-well plates. For the assay buffer, Dulbecco's Phosphate Buffered Saline at pH 7.4 was used. […] The test compound was then dosed on either the apical or basolateral side of the Caco-2 monolayer, and flux across the monolayer was determined both one and two hours after dosing. Results were compared to control high permeability compounds metoprolol and antipyrine and low permeability compounds atenolol and ranitidine, and were expressed as Papp (apparent permeability) compared to reference compound standards. Integrity of the monolayers was determine both before and after testing by measuring the […] electrical resistance (TEER) value. Apparent permeability is calculated as (dCr/dt)×Vr/(A×C0) where dCr/dt is the slope of the cumulative concentration in the receiver compartment versus time in micromolar per second, Vr is the volume of the receiver compartment in cubic centimeters, A is the area of the cell monolayer, and C0 is the measured initial donor concentration in micromolar.

[2] = tested on: human intestinal tissue (jejunum, ileum, colon); assay: Permeability in viable human intestinal strips (USSING chambers), mucosal to serosal; format: in vitro ADME
From the text: (§1) This model allows evaluation of the absorption potential of drugs and differences in drug absorption across the human jejunum, ileum, and colon and is based on Ungell et al. “Membrane Transport of Drugs in Different Regions of the Intestinal Tract of the Rat”, J. Pharm. Sci. 87:360-366, (1998) and Nejdfors et al. “Mucosal in vitro Permeability in the Intestinal Tract of the Pig, the Rat, and Man: Species and Region Related Differences”, Scand. J. Gastroenterol. 35:501-507, (2000). Permeation experiments were performed for 5-azacytidine in the jejunal, ileal, and colonic tissues originating from the same human donor. Post-mortem human whole intestine was obtained from the International Institute for the Advancement of Medicine (IIAM). Tissues were used within 24 hours of the organ's removal. Tissues were maintained in cold transport media before being stripped. The segments were cut along the mesenteric border, the underlying musculature was stripped off, and the epithelium was rinsed with ice cold normal saline. The stripped tissues were mounted within the vertical USSING chambers (Harvard Apparatus, Holliston, Mass.). In these studies, 5-azacytidine permeability was measured in both absolute rate and relative to atenolol (internal control). In all cases the net apparent permeability was assessed in the mucosal to serosal direction only.

[3] = tested on: human colonic tissue; assay: Permeation enhancement in human colonic strips; format: in vitro ADME; conditions: without enzymatic inhibition (FIGS. 3, 4)
From the text: as §1

[4] = tested on: total hemoglobin, fetal hemoglobin and F cells; conditions: sickle cell patients, cited from earlier work
[5] = tested on: leukemic mice; conditions: cited from earlier work
[6] = PO administration with THU versus without, bioassay

Compound `Nc1ncn([C@@H]2O[C@H](CO)[C@@H](O)[C@H]2O)c(=O)n1` [5-azacytidine, 4-amino-1-β-D-ribofuranosyl-1,3,5-triazin-2(1H)-one] has a Papp at 1000 micromolar ([1]; Caco-2, pH 7.4, with Carboxymethyl Cellulose 0.1%) of 0.26 ± 0.09 ×10⁻⁶ cm/s, a Papp at 1000 micromolar ([1]; Caco-2, pH 7.4, with Chitosan 0.1%) of 0.15 ± 0.01 ×10⁻⁶ cm/s and a Papp at 1000 micromolar ([1]; Caco-2, pH 7.4, with Labrafil 0.001%) of 0.27 ± 0.02 ×10⁻⁶ cm/s. For the same compound, the Papp at 1000 micromolar ([1]; Caco-2, pH 7.4, with Labrafil 0.01%) was 0.23 ± 0.04 ×10⁻⁶ cm/s, the Papp at 1000 micromolar ([1]; Caco-2, pH 7.4, with Labrafil 0.05%) was 0.38 ± 0.13 ×10⁻⁶ cm/s and the Papp at 1000 micromolar ([1]; Caco-2, pH 7.4, with Labrafil 0.1%) was 0.34 ± 0.002 ×10⁻⁶ cm/s. It also gave a Papp at 1000 micromolar ([1]; Caco-2, pH 7.4, with Poloxamer F127 0.1%) of 0.13 ± 0.02 ×10⁻⁶ cm/s, a Papp at 1000 micromolar ([1]; Caco-2, pH 7.4, with Sodium Laurate 0.001%) of 0.19 ± 0.04 ×10⁻⁶ cm/s and a Papp at 1000 micromolar ([1]; Caco-2, pH 7.4, with Sodium Laurate 0.01%) of 0.19 ± 0.02 ×10⁻⁶ cm/s. It also gave a Papp at 1000 micromolar ([1]; Caco-2, pH 7.4, with Sodium Laurate 0.05%) of 0.17 ± 0.03 ×10⁻⁶ cm/s, a Papp at 1000 micromolar ([1]; Caco-2, pH 7.4, with Sodium Laurate 0.1%, high permeability due to toxic effects of sodium laurate on Caco 2 cells) of 15.8 ± 1.77 ×10⁻⁶ cm/s and a Papp at 1000 micromolar ([1]; Caco-2, pH 7.4, with Solutol 0.1%) of 0.26 ± 0.04 ×10⁻⁶ cm/s. It also gave a Papp at 1000 micromolar ([1]; Caco-2, pH 7.4, with TPGS 0.001%) of 0.33 ± 0.08 ×10⁻⁶ cm/s, a Papp at 1000 micromolar ([1]; Caco-2, pH 7.4, with TPGS 0.01%) of 0.3 ± 0.05 ×10⁻⁶ cm/s and a Papp at 1000 micromolar ([1]; Caco-2, pH 7.4, with TPGS 0.05%) of 0.45 ± 0.18 ×10⁻⁶ cm/s. The Papp at 1000 micromolar ([1]; Caco-2, pH 7.4, with TPGS 0.1%) was 0.38 ± 0.09 ×10⁻⁶ cm/s, the Papp A→B at 1000 micromolar ([1]; Caco-2, pH 7.4, read-out: Papp (apical to basolateral permeability)) was 0.15 ± 0.02 ×10⁻⁶ cm/s and the “Absolute mucosal to serosal permeability by intestinal region” value ([2]; colon relative to jejunum and ileum, multiple donors (FIG. 1)) was “greatest in the colon”. For the same compound, the “Effect of enzymatic inhibitors on absolute permeability” value ([2]; with ketoconazole and THU, increase maximal in jejunum and ileum, relatively small in colon) was “increased the absolute permeability in all GI tract regions”, the “Permeability with permeation enhancer” value ([3]; various concentrations of Labrafil) was “did not appear to affect” and the “Permeability with permeation enhancer” value ([3]; various concentrations of TPGS) was “trend toward greater permeability with increasing levels of TPGS”. The “Clinical response, SC without THU versus PO with THU” value ([4]; 2 mg/kg/d SC without THU versus 0.2 mg/kg/d PO with 200 mg/d THU) was “comparable clinical response”, the “Clinical response (total hemoglobin, fetal hemoglobin and F cell levels)” value ([4]; 5-azacytidine co-administered with THU) was “good clinical response” and the F reticulocyte production ([4]; oral 5-azacytidine 2 mg/kg/d alone) was “did not result in increased F reticulocyte production”. For the same compound, the “Effect of THU on clearance or degradation of 5-azacytidine” value ([5]; IP administration with THU, bioassay) was “little effect”, the Cmax [5, 6] was “significantly increased” and the t1/2 [5, 6] was “significantly increased”. The “Efficacy with co-administration of THU” value ([5]; PO with THU, all doses except the highest chronic dose which was toxic) was “increased efficacy” and the “Effect of THU on pharmacodynamic effects of 5-azacytidine” value ([5]; acute and chronic IP dosing with THU, except at the highest chronic dose which was toxic) was “did not influence”.

Reference: patent US20080057086A1, “COLON-TARGETED ORAL FORMULATIONS OF CYTIDINE ANALOGS” (PHARMION CORPORATION, priority 2006, published 2008)
